The values that follow come from PubChem BioAssay (NCI).

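Values below derive from 48-hour exposures of cells grown in 96-well plates, with endpoints linearly interpolated between the two concentrations bracketing the appropriate inhibition level. The concentration for 50% growth inhibition is given as GI50. TGI is the concentration that stops growth completely.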

Some test systems named below: SF-295 CNS; A549 NSCLC; NCI-H226 lung; SK-MEL-5 melanoma; BT-549 breast; HCT-116 colon; DU-145 prostate; NCI-H522 lung; SW-620 colon; EKVX NSCLC.
What all share (experiment): NCI-60 cell line screen, 48 h

With `Cc1ccc(-n2nnc3c(sc4ccccc43)c2=O)cc1`, the GI50 with SF-295 CNS was 3.03 µM; in the experiment on A549 NSCLC, 5.23 µM; in the experiment with NCI-H226 lung, 9.55 µM; with SK-MEL-5 melanoma, 28.1 µM; with BT-549 breast, > 100 µM; with HCT-116 colon, 3.1 µM. Also, the GI50 in the experiment on DU-145 prostate was 7.41 µM; in the experiment with NCI-H522 lung, 63.5 µM; with SW-620 colon, 26.2 µM. Also, the TGI in the experiment with SF-295 CNS is 14.5 µM; in the experiment with A549 NSCLC, > 100 µM; in the experiment with NCI-H226 lung, > 100 µM; in the experiment on SK-MEL-5 melanoma, > 100 µM; with BT-549 breast, > 100 µM; in the experiment with HCT-116 colon it was > 100 µM. Besides, the TGI with DU-145 prostate, with NCI-H522 lung and in the experiment with SW-620 colon was > 100 µM each time.

`CCOP(=O)(CCN1CCN(CCCCCOc2cc3c(cc2OC)C(=O)N2CCC[C@H]2C=N3)CC1)OCC`: the GI50 with A549 NSCLC was 8.55 µM; with NCI-H226 lung, 17.1 µM; in the experiment on SK-MEL-5 melanoma, 3.62 µM; in the experiment with BT-549 breast it was 5.96 µM; in the experiment with HCT-116 colon, 7.66 µM; with DU-145 prostate, 17.8 µM. Further, the GI50 in the experiment with NCI-H522 lung is 1.93 µM; in the experiment on EKVX NSCLC it was 19.5 µM; in the experiment with SW-620 colon it was 4.47 µM. Further, the TGI in the experiment on A549 NSCLC came to 34.8 µM; in the experiment on NCI-H226 lung, 65.5 µM; in the experiment with SK-MEL-5 melanoma, 23.8 µM; in the experiment on BT-549 breast, 31.7 µM; in the experiment on HCT-116 colon, 80.8 µM; in the experiment on DU-145 prostate, 63.3 µM. Moreover, the figures for the TGI with NCI-H522 lung, in the experiment on EKVX NSCLC and in the experiment with SW-620 colon were 7.8 µM, 47.8 µM and 30.5 µM, respectively.

As for `C[C@@H](Oc1cc(-c2cnn(C3CC4(CNC4)C3)c2)cnc1N)c1c(Cl)ccc(F)c1Cl`, the GI50 is 1.41 µM with SF-295 CNS; 3.09 µM in the experiment on A549 NSCLC; 6.81 µM with NCI-H226 lung; 3.92 µM in the experiment on SK-MEL-5 melanoma; 6.49 µM in the experiment with BT-549 breast; 2.09 µM in the experiment with HCT-116 colon. The values for the GI50 with DU-145 prostate, with NCI-H522 lung and in the experiment on SW-620 colon were 5.45 µM, 10.2 µM and 1.31 µM, respectively. The TGI in the experiment on SF-295 CNS amounted to 13.6 µM; in the experiment on A549 NSCLC, 12.6 µM; in the experiment on NCI-H226 lung, 24.3 µM; with SK-MEL-5 melanoma, 12.2 µM; in the experiment with BT-549 breast, 19.4 µM; in the experiment on HCT-116 colon, 8.87 µM. In addition, the TGI in the experiment with DU-145 prostate stood at 18.1 µM; with NCI-H522 lung, 25.4 µM; in the experiment on SW-620 colon, 11.9 µM.

On to `CC(=O)NC1CCCN(O)C(=O)/C=C(/C)CCOC(=O)C(NC(C)=O)CCCN(O)C(=O)/C=C(/C)CCOC(=O)C(NC(C)=O)CCCN(O)C(=O)/C=C(/C)CCOC1=O.[Fe]` (configuration not stated), for which the GI50 in the experiment with SF-295 CNS, in the experiment with A549 NSCLC, in the experiment on SK-MEL-5 melanoma, in the experiment on BT-549 breast, with HCT-116 colon and in the experiment with DU-145 prostate was > 100 µM throughout. Besides, the GI50 with NCI-H522 lung, in the experiment on EKVX NSCLC and in the experiment on SW-620 colon was > 100 µM in each case. Also, the TGI in the experiment with SF-295 CNS, with A549 NSCLC, with SK-MEL-5 melanoma, with BT-549 breast, in the experiment with HCT-116 colon and with DU-145 prostate was > 100 µM throughout. Also, the TGI in the experiment with NCI-H522 lung, with EKVX NSCLC and in the experiment with SW-620 colon was > 100 µM each time.

Consider `Cc1ccc(-c2c3c(N)nc(-c4ccncc4)nc3nc3c2c(C)nn3-c2ccccc2)cc1`, for which the GI50 in the experiment on SF-295 CNS is > 37.5 µM; in the experiment on A549 NSCLC, 2.62 µM; with NCI-H226 lung it was 14 µM; in the experiment with SK-MEL-5 melanoma, 10.2 µM; in the experiment with BT-549 breast, 7.38 µM; in the experiment on HCT-116 colon, 2.95 µM. The GI50 is 5.08 µM in the experiment on DU-145 prostate, > 37.5 µM in the experiment with NCI-H522 lung and 9.99 µM with SW-620 colon. The TGI with SF-295 CNS was > 37.5 µM; in the experiment with A549 NSCLC, > 37.5 µM; in the experiment with NCI-H226 lung it was > 37.5 µM; in the experiment on SK-MEL-5 melanoma it was > 37.5 µM; in the experiment on BT-549 breast, 17.9 µM; in the experiment on HCT-116 colon, 11.1 µM. In addition, the TGI with DU-145 prostate is 20.7 µM; in the experiment with NCI-H522 lung, > 37.5 µM; in the experiment on SW-620 colon, > 37.5 µM.

On to `Cc1cn(C2CC(N=[N+]=[N-])C(CO)O2)c(=O)[nH]c1=O` (configuration not stated), for which the GI50 with A549 NSCLC was 325 µM; in the experiment on NCI-H226 lung it was > 1000 µM; in the experiment on NCI-H522 lung, > 1000 µM; in the experiment with EKVX NSCLC it was > 1000 µM; in the experiment on SW-620 colon, > 1000 µM. The TGI is > 1000 µM with A549 NSCLC; > 1000 µM in the experiment on NCI-H226 lung; > 1000 µM in the experiment on SK-MEL-5 melanoma; > 1000 µM in the experiment on BT-549 breast; 422 µM in the experiment on HCT-116 colon; > 1000 µM in the experiment with DU-145 prostate. For the same compound, the TGI in the experiment with NCI-H522 lung, in the experiment with EKVX NSCLC and in the experiment on SW-620 colon was > 1000 µM throughout.

For the compound `O=C(CCCCCNC1=CC(=O)c2ccccc2C1=O)NCCC[Te]c1ccccc1`, the GI50 in the experiment with SF-295 CNS is 0.248 µM; in the experiment on A549 NSCLC, 0.32 µM; in the experiment on NCI-H226 lung, 0.335 µM; in the experiment on SK-MEL-5 melanoma it was 1.37 µM; in the experiment on BT-549 breast, 0.297 µM; in the experiment on HCT-116 colon, 0.295 µM. For the same compound, the GI50 is 0.43 µM in the experiment on DU-145 prostate, 1.75 µM in the experiment on NCI-H522 lung and 0.259 µM with EKVX NSCLC. The TGI came to 0.686 µM with SF-295 CNS; 1.54 µM in the experiment on A549 NSCLC; 1.23 µM with NCI-H226 lung; 2.67 µM in the experiment with SK-MEL-5 melanoma; 0.916 µM in the experiment with BT-549 breast; 0.98 µM with HCT-116 colon. The TGI in the experiment with DU-145 prostate came to 1.9 µM; in the experiment on NCI-H522 lung, 81.5 µM; in the experiment with EKVX NSCLC, 0.928 µM.

`COc1ccc(C2c3cc4c(c(OC)c3CC3OCC(=O)C32)OCO4)cc1OC` (configuration not stated): the GI50 in the experiment with SF-295 CNS, with A549 NSCLC, in the experiment on NCI-H226 lung, in the experiment with BT-549 breast, in the experiment on HCT-116 colon and with DU-145 prostate was < 0.01 µM in each case. In addition, the GI50 in the experiment with EKVX NSCLC and in the experiment on SW-620 colon was < 0.01 µM throughout. The TGI was < 0.01 µM in the experiment with SF-295 CNS; > 100 µM in the experiment on A549 NSCLC; > 100 µM in the experiment with NCI-H226 lung; > 100 µM in the experiment on BT-549 breast; 0.0181 µM in the experiment with NCI-H522 lung; > 100 µM in the experiment with EKVX NSCLC. Besides, in the experiment on SW-620 colon, the TGI is > 100 µM.
